Our source for the IC50 values is patent US6806265B2, “Non-nucleoside reverse transcriptase inhibitors” (priority 2002, dated 2004).

Test [1] addresses T1, HIV-1 RT double mutant K103N/Y181C (Human immunodeficiency virus type 1 group M subtype B, UniProt P03366, K702N/Y780C).
T1 construct: HIV-1 wild type reverse transcriptase as well as the clinically significant double mutant K103N/Y181C
As to the kind of experiment: biochemical. As for the experimental part:
(§1) Utilizing the Reverse Transcriptase (RT) Assay described below, compounds were tested for their ability to inhibit the RNA-dependent DNA polymerase activity of HIV-1 RT. Certain specific compounds described in the Examples and in Tables 1-4, were so tested. The results of this testing appear in Table 5 as ranges of IC50 (nM) and EC50 (nM).
(§2) Reverse Transcriptase (RT) Assays

The target in test [2] is T2, HIV-1 wild type reverse transcriptase (Human immunodeficiency virus type 1 group M subtype B, UniProt P03366).
T2 construct: HIV-1 wild type reverse transcriptase
As to the kind of experiment: biochemical. The settings on record: read-out: IC50 WT RT. As for the experimental part: as §1, §2

[3] abbreviates: RT double mutant K103N/Y181C, read-out: IC50 K103N/Y181C.

Read-outs that look alike come from different tables or passages of the source.

Turning to `CCN1c2ncc(CCOc3ccc(-c4ccc(CCC(=O)O)o4)cc3)cc2C(=O)N(C)c2cccnc21` [Entry 1048], the IC50 in test [1] (setting [3]) is over 100 nM; in test [2] it was under 50 nM.

As for `CCN1c2ncc(CCOc3ccc(N(Cc4ccc(C(=O)O)cc4)C(C)=O)cc3C)cc2C(=O)N(C)c2cccnc21` [Entry 4003], the results for the IC50 in test [1] and in test [2] (wild type RT) were over 100 nM and 50 to 100 nM, respectively.

For `CCN1c2ncc(CCOc3ccc(-c4cnc(N)c(C)c4)cc3C)cc2C(=O)N(C)c2cccnc21` [Entry 1080], the IC50 in test [1] (setting [3]) and in test [2] (wild type RT) was under 50 nM in each case.

`CCN1c2ncc(CCOc3ccc(-c4cc[n+]([O-])cc4)cc3C)cc2C(=O)N(C)c2cccnc21` [Entry 1084]: the IC50 in test [1] (setting [3]) and in test [2] (wild type RT) was under 50 nM in each case.

With `CCN1c2ncc(CCOc3ccc(C(=O)Nc4cccc[n+]4[O-])cc3C)cc2C(=O)N(C)c2cccnc21` [Entry 3015], the IC50 in test [1] and in test [2] (wild type RT) was under 50 nM in each case.

In the case of `CCN1c2ncc(CCOc3cccc(-c4ccccc4)c3)cc2C(=O)N(C)c2cccnc21` [Entry 2003], the IC50 in test [1] was over 100 nM; in test [2] (wild type RT), under 50 nM.

`CCN1c2ncc(CCOc3ccc(-c4cc(C)ccn4)cc3C)cc2C(=O)N(C)c2cccnc21` [Entry 1065]: the IC50 in test [1] (setting [3]) and in test [2] (wild type RT) was under 50 nM each time.

As for `CCN1c2ncc(CCOc3ccc(-c4cc(C(=O)O)ccc4F)cc3C)cc2C(=O)N(C)c2cccnc21` [Entry 1029], the IC50 in test [1] (setting [3]) is 50 to 100 nM; in test [2] (wild type RT), under 50 nM.

`CCN1c2ncc(CCOc3ccc(-c4ccc(CC(=O)O)cc4Cl)cc3C)cc2C(=O)N(C)c2cccnc21` [Entry 1025]: the IC50 in test [1] (setting [3]) and in test [2] (wild type RT) was under 50 nM in each case.

Take `CCN1c2ncc(CCOc3ccc(C(=O)Nc4ccc[n+]([O-])c4)cc3C)cc2C(=O)N(C)c2cccnc21` [Entry 3013]: the IC50 in test [1] and in test [2] (wild type RT) was under 50 nM in each case.

Regarding `CCN1c2ncc(CCOc3ccc(C(=O)NCc4cc[n+]([O-])cc4)cc3C)cc2C(=O)N(C)c2cccnc21` [Entry 3003], the figures for the IC50 in test [1] and in test [2] (wild type RT) were 50 to 100 nM and under 50 nM, respectively.

Regarding `CCN1c2ncc(CCOc3ccc(-c4cnccc4C)cc3C)cc2C(=O)N(C)c2cccnc21` [Entry 1076, 11-Ethyl-5,11-dihydro-5-methyl-8-{2-[2-methyl-4-(4-methyl-3-pyridinyl)phenoxy]ethyl}-6H-dipyrido[3,2-b:2′,3′-e][1,4]diazepin-6-one], the IC50 in test [1] and in test [2] (wild type RT) was under 50 nM throughout.

`CCN1c2ncc(CCOc3ccc(NC(C)=O)cc3C)cc2C(=O)N(C)c2cccnc21` [Entry 4001]: the results for the IC50 in test [1] and in test [2] (wild type RT) were 50 to 100 nM and under 50 nM, respectively.

`CCN1c2ncc(CCOc3ccc(-c4ccnc(C)c4)cc3C)cc2C(=O)N(C)c2cccnc21` [Entry 1085]: the IC50 in test [1] (setting [3]) and in test [2] (wild type RT) was under 50 nM in each case.

Consider `CCN1c2ncc(CCOc3ccc(-c4ccc(CC(=O)O)cc4[N+](=O)[O-])cc3C)cc2C(=O)N(C)c2cccnc21` [Entry 1027], for which the figures for the IC50 in test [1] (setting [3]) and in test [2] (wild type RT) were 50 to 100 nM and under 50 nM, respectively.

Take `CCN1c2ncc(CCOc3ccc(-c4cccnc4C)cc3C)cc2C(=O)N(C)c2cccnc21` [Entry 1074]: the IC50 in test [1] (setting [3]) and in test [2] (wild type RT) was under 50 nM each time.

For the compound `CCN1c2ncc(CCOc3ccc(-c4ncccn4)cc3)cc2C(=O)N(C)c2cccnc21` [Entry 1061], the IC50 in test [1] (setting [3]) was over 100 nM; in test [2] (wild type RT), under 50 nM.

Consider `CCN1c2ncc(CCOc3ccc(-c4cc(C(=O)O)ccc4OC)cc3C)cc2C(=O)N(C)c2cccnc21` [Entry 1030], for which the IC50 in test [1] (setting [3]) was over 100 nM; in test [2] (wild type RT) it was under 50 nM.

Regarding `CCN1c2ncc(CCOc3ccc(-c4cc[n+]([O-])c(C)c4)cc3C)cc2C(=O)N(C)c2cccnc21` [Entry 1086], the IC50 in test [1] (setting [3]) and in test [2] (wild type RT) was under 50 nM throughout.

With `CCN1c2ncc(CCOc3ccc(-c4cc(C(=O)O)on4)cc3)cc2C(=O)N(C)c2cccnc21` [Entry 1040], the IC50 was over 100 nM in test [1] (setting [3]) and under 50 nM in test [2] (wild type RT).
